ChEMBL document CHEMBL1201862, “PubChem BioAssay data set” (2004)
Each block holds one compound with its values, some of them ahead of it. Calls of active or inactive are those of the source.

Legend:
[1] = Trypanosoma cruzi growth suppression in host cells – NIH3T3 host cells, beta-gal luminescence, confirmation (AID 2044); type: functional, cell-based;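 further: intracellular parasites grown in NIH/3T3 mouse fibroblasts as host cells; luminescent beta-galactosidase reporter signal from transgenic T. cruzi replicating inside host cells; inhibitors lower the luminescence signal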
[2] = cells
[3] = biological target: T1, Short transient receptor potential channel 4 (Mus musculus, UniProt Q9QUQ5); assay: block of DAMGO-driven TRPC4 calcium entry – cell-based, HEK293 TRPC4/mu-opioid, Fluo-4 calcium, dose response (AID 434942); type: functional;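 further: potency of inhibitors blocking the TRPC4 calcium response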
T1 sequence (Q9QUQ5 whole entry): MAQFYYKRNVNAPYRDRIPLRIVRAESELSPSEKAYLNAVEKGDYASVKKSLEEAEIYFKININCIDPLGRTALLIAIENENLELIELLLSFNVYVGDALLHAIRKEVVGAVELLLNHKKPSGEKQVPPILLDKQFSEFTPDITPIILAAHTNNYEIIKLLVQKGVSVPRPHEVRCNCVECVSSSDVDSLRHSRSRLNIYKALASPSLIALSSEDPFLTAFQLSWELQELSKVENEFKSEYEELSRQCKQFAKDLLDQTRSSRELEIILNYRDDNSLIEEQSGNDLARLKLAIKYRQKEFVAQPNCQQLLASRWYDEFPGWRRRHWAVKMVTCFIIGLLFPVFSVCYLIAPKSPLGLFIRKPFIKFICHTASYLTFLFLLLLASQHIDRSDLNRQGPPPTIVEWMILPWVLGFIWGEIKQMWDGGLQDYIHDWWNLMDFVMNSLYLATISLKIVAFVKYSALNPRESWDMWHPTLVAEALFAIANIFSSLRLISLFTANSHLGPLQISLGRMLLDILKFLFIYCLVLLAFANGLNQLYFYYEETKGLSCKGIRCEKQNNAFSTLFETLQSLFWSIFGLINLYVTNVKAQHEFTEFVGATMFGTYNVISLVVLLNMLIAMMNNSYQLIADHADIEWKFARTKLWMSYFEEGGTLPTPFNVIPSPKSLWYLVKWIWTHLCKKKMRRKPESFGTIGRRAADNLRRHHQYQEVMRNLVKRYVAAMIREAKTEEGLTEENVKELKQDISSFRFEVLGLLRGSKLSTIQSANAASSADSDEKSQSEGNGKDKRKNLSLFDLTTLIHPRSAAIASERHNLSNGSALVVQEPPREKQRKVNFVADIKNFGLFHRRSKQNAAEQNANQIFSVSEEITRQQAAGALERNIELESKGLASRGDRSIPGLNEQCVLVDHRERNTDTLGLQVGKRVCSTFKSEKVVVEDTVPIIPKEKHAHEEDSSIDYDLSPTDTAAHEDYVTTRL

[4] = NIH3T3 cell viability loss – ATP luminescence, mouse fibroblasts, counter-screen, dose response (AID 2010); type: functional, cell-based;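 further: cells exposed to compound for about 90 hours before reading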
[5] = HIV-1 Vif–A3G interaction blockers – biochemical, TR-FRET, GST-Vif 1-94, biotin-A3G peptide, dose response retest, primary screen (AID 1117319); type: functional;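 further: TR-FRET signal of purified GST-Vif binding a biotinylated A3G peptide; inhibitors lower the FRET signal by blocking Vif and A3G binding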
[6] = Dd2 malaria parasite growth inhibition potency – SYBR Green, dry powder samples, dose response (AID 1159566); type: functional, cell-based;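 further: potency for growth inhibition with lower SYBR green DNA signal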
[7] = P. falciparum Dd2 growth inhibitors, dose response, SYBR Green, cherry-picked samples (AID 1159567); type: functional, cell-based
[8] = growth inhibition of PfATP4-mutant resistant parasites – NITD609-resistant line, SYBR Green, dry powder, dose response (AID 1159571); type: functional, cell-based;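 further: parasites synchronized at ring stage by sorbitol before testing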
[9] = toxicity to human HepG2 hepatoma cells – cell-based, plate reader, dry powder samples, cytotoxicity control, dose response (AID 1159569); type: functional;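 further: inhibitor potency with signal falling toward the positive control level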
[10] = growth inhibition of yeast DHODH-expressing 3D7 parasites – SYBR Green, dry powder samples, dose response (AID 1159570); type: functional, cell-based;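 further: parasite growth measured after 72 hours of compound exposure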
[11] = biological target: T2, Estrogen receptor beta (Homo sapiens, UniProt Q92731); assay: blockers of SRC-3 recruitment to ERβ – biochemical, ELISA, streptavidin-HRP readout, orthogonal assay, confirmation (AID 1060)
T2 sequence (Q92731 whole entry): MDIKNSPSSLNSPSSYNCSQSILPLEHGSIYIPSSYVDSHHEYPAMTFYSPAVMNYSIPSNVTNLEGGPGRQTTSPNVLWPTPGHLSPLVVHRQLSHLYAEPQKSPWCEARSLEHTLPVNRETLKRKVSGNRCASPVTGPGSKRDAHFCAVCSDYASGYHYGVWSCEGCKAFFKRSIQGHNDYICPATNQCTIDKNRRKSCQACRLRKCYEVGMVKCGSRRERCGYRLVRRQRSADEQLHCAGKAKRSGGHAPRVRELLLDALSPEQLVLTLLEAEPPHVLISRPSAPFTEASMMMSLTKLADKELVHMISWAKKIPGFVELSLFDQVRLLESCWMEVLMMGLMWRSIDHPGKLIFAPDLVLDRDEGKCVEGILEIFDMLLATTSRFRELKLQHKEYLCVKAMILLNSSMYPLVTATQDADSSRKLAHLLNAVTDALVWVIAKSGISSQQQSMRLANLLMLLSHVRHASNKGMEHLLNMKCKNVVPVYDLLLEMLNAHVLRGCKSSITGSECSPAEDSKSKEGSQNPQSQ

[12] = biological target: T2, Estrogen receptor beta
[13] = tested on: BJ; assay: BJ-TERT-LT-ST fibroblast viability loss – cell-based, RAS-independent, luminescence, dose response (AID 1935); type: functional; conditions: Homo sapiens;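 further: BJ fibroblasts immortalized with TERT plus LT and ST oncogenes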
[14] = tested on: BJ; assay: BJ-TERT fibroblast viability loss – cell-based, RAS-independent, luminescence, dose response (AID 1933); type: functional; conditions: Homo sapiens
[15] = NIH-3T3 fibroblast cytotoxicity, dose response, cytotoxicity control, cell-based, fluorescence, Alamar Blue, secondary assay (AID 2327); type: functional;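 further: NIH-3T3 mouse fibroblasts cultured with fluconazole at 8 µg/mL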
[16] = DRD fibroblast viability loss – cell-based, non-viral oncogenic, luminescence, dose response (AID 1934); type: functional; conditions: Homo sapiens
[17] = fluconazole-exposed Candida albicans growth modulators – fluorescence, retest, confirmation (AID 2467); type: functional, cell-based
[18] = tested on: BJ; assay: cells; type: functional, cell-based; conditions: Homo sapiens
[19] = biological target: FAD-linked sulfhydryl oxidase ALR (Homo sapiens, UniProt P55789); assay: ALR-catalysed DTT oxidation blockers – biochemical, H2O2 detection, luminescence, cherry-pick, dose response (AID 493248)
Chain of FAD-linked sulfhydryl oxidase ALR (P55789 whole entry): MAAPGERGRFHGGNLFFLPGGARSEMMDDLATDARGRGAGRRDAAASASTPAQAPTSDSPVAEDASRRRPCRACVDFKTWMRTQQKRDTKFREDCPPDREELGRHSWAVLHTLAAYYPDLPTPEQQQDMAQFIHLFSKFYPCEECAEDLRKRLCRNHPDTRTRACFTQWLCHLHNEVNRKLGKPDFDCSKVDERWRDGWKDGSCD

[20] = toxicity to human hepatoma HepG2 cells – cell-based, cherry-picked samples, cytotoxicity control, dose response (AID 1159577); type: functional
[21] = biological target: T3, Estrogen receptor (Homo sapiens, UniProt P03372);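 further: potency for inhibiting coactivator peptide recruitment to the receptor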
T3 sequence (P03372 whole entry): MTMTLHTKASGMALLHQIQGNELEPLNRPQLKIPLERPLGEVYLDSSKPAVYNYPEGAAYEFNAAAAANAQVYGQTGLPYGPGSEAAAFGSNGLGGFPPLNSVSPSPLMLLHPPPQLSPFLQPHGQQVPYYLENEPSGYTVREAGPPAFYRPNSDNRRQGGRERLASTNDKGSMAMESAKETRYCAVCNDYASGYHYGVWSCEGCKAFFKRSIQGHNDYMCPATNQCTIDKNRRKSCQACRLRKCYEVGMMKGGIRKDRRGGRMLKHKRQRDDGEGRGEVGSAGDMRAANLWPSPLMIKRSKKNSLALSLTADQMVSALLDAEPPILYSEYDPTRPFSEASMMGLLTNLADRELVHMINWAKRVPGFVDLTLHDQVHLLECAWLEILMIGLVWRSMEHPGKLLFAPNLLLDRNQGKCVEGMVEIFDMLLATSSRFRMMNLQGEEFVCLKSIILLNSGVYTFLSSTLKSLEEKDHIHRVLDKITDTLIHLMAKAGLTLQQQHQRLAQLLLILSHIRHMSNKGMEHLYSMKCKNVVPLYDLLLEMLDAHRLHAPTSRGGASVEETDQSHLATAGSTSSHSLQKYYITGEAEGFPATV

[22] = biological target: T4, Carboxy-terminal domain RNA polymerase II polypeptide A small phosphatase 1 (Homo sapiens, UniProt Q9GZU7); assay: CTDSP1 inhibitors, concentration-response, biochemical, absorbance readout, ultra-high-throughput screen actives (AID 540297); type: functional
T4 sequence (Q9GZU7 whole entry): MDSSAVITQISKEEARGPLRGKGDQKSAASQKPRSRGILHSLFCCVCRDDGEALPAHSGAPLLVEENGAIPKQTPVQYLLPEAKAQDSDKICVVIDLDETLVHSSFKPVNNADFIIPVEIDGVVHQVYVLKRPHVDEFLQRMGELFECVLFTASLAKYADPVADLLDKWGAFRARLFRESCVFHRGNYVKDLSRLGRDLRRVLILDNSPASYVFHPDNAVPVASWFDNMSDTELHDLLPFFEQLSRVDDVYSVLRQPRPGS

SMILES: O=[N+]([O-])c1ccc(CN2CCN(Cc3c[nH]c4ccccc34)CC2)cc1
EC50 [1]: < 0.1 µM (active)
EC50 [2]: 0.249 µM (active)
EC50 [3]: 5.96 µM (active)
EC50 [4]: > 60 µM (not active)

SMILES: COc1ccc2c3c(n(C)c2c1)[C@H](CO)N(CC1CCOCC1)CC31CCN(Cc2nccs2)CC1
AC50 [6]: 1.1 µM (active)
AC50 [7]: 1.46 µM (active)
AC50 [8]: 1.32 µM (active)
AC50 [9]: > 100 µM (inactive)
AC50 [10]: 0.845 µM (active)

SMILES: CCN(CC)c1ccc(/C=C/c2cccc[n+]2C)c(OC)c1
EC50 [13]: 13.7 µM (inconclusive)
EC50 [14]: 7.77 µM (active)
EC50 [15]: > 150 µM (inactive)
EC50 [16]: 15.2 µM (active)
EC50 [1]: < 0.1 µM (active)
EC50 [17]: 0.34 µM (active)
EC50 [2]: 0.023 µM (active)
EC50 [18]: 17.9 µM (active)
AC50 [19]: 0.452 µM (active)
EC50 [4]: > 60 µM (not active)

SMILES: OC[C@H]1Nc2ccc(C#Cc3ccc(F)cc3)cc2[C@H]2[C@@H]1CCN2Cc1ccc2c(c1)OCO2
AC50 [6]: 3.38 µM (active)
AC50 [20]: 26.2 µM (active)
AC50 [7]: 2.75 µM (active)
AC50 [8]: 3.18 µM (active)
AC50 [9]: 20.9 µM (active)
AC50 [10]: 4 µM (active)

Now from value to compound:

IC50 [5]: > 100 µM (active)
SMILES: CC(=O)N1CCc2cc(S(=O)(=O)NCCC(=O)Nc3cccc(C)c3C)ccc21

IC50 [11]: 18.2 µM (not active)
IC50 [12]: 18.5 µM (active)
SMILES: CCOc1[nH]c(/N=C/c2ccco2)c(C#N)c1C#N

IC50 [5]: > 100 µM (active)
SMILES: CCc1cccc(NC(=O)CN(C)S(=O)(=O)c2cccc3nsnc23)c1

IC50 [11]: 24.9 µM (not active)
IC50 [21]: 7.24 µM (active)
IC50 [22]: 4.93 µM (active)
IC50 [12]: 6.57 µM (active)
SMILES: O=C(Cn1c(=O)n(Cc2ccco2)c(=O)c2c3c(sc21)CCCCC3)Nc1ccccc1
